Assay results as given in article PMC6589951 (Therapeutic Advances in Medical Oncology, 2019).
“Also recorded” adds a separate entry of the source.

Columns and labels:
[1] = system: patients with advanced solid tumors; assay: exposure, dosing compliance and actions taken with study drug; format: in vivo, human
[2] = system: patients with advanced solid tumors; assay: phase Ib dose escalation 3+3: DLT, MTD, RP2D; format: in vivo, human
[3] = pexidartinib plasma pharmacokinetics, cycle 1 day 15; format: in vivo, human; settings: day 15, steady state
CD14dim/CD16+ monocytes = assay: blood CD14dim/CD16+ monocyte levels; format: in vivo, human; settings: doses as low as 800 mg daily
CSF-1R = settings: read-out: IC50 CSF-1R; ref Investigator's Brochure, 14; cited from earlier work
osteoclast precursors = settings: RANK-L and CSF-1 dependent manner; ref Investigator's Brochure, 14; cited from earlier work
mammary carcinoma = settings: mouse model of mammary carcinoma, cited from earlier work
PVNS/TGCT = settings: 1000 mg daily; cited from earlier work

Row | patients with paclitaxel dose reductions ([1]; Eight patients) [%] | patients with paclitaxel temporarily withheld ([1]; in vivo) [%] | SMILES | omitted paclitaxel doses with AEs as reason ([1]; in vivo) [%] | recommended phase II dose (RP2D) ([2]; pexidartinib in combination with weekly paclitaxel 80 mg/m^2) [mg/day] | maximum tolerated dose ([2]; pexidartinib up to 1600 mg/day with weekly paclitaxel) | dose at which pexidartinib plasma concentration and exposure reached saturation [3] [mg] | reduction of CD14dim/CD16+ monocytes in the peripheral blood (CD14dim/CD16+ monocytes) | dose reductions as an immediate action following pexidartinib-related AE ([1]; in vivo) [patients] | patients missing doses of pexidartinib due to AEs of any cause ([1]; in vivo) | patients with dose modifications of pexidartinib ([1]; in vivo) [%] | patients with pexidartinib dose reductions ([1]; in vivo) | IC50 (CSF-1R) [nM] | differentiation of osteoclast precursors (osteoclast precursors) | survival of study animals (mammary carcinoma; following chemotherapy) | tumor growth (mammary carcinoma; following chemotherapy) | TAM recruitment following chemotherapy (mammary carcinoma) | Median PFS (PVNS/TGCT) | time in which PRs occurred (PVNS/TGCT) [months]
1 | 15 | 39 | CC(=O)O[C@H]1C(=O)[C@@]2(C)[C@H]([C@H](OC(=O)c3ccccc3)[C@]3(O)C[C@H](OC(=O)[C@H](O)[C@@H](NC(=O)c4ccccc4)c4ccccc4)C(C)=C1C3(C)C)[C@]1(OC(C)=O)CO[C@@H]1C[C@@H]2O [paclitaxel, reference compound] | 54 | – | – | – | – | – | – | – | – | – | – | – | – | – | – | –
2 | – | – | FC(F)(F)c1ccc(CNc2ccc(Cc3c[nH]c4ncc(Cl)cc34)cn2)cn1 [pexidartinib] | – | […] | no maximum tolerated dose was achieved; also recorded: No maximum tolerated dose was determined; also recorded: No maximum tolerated dose was reached | […] | near complete reduction | […] | […] | […] | […] | […] | inhibit differentiation | improved survival | slower tumor growth | abrogate TAM recruitment | not reached | […]
